Results published in patent US5369096A, “Glycolipid derivatives” (The Nisshin Oil Mills, Ltd., priority 1992, dated 1994).

Key:
Assay type in all cases: cell-based
[1] = tested on: Colo 201 cancer cells adhering to vascular endothelial cells of the normal human umbilical cord; assay: inhibition of adhesion of Colo 201 cancer cells to rhIL1β-stimulated vascular endothelial cells, liposome dispersion; settings: 11.8 μM equivalent; for Amount of Colo 201 cells adhered (fluorescence intensity): rhIL1β 200 U/ml, 485 nm
Method: A solution of 200 μg of phosphatidylcholine, 100 μg of cholesterol, 7.5 μg of dicetyl phosphate and 50 μg of a compound of the invention in a mixture of chloroform/methanol=2/1 (ca. 1 ml) was evaporated under reduced pressure to dryness followed by addition of 0.25 ml of a phosphate-buffered saline solution. The mixture was ultrasonicated (an output of 90 watts) for 5 min. and stirred (a vortex mixer) for 5 min. to form a liposome dispersion.
(§1) % Inhibition of adhesion=100-[(fluorescence intensity for rhIL1β-treated group+compound-free or a compound-containing liposome dispersion-treated group)-(fluorescence intensity for rhIL1β-untreated group)/(fluorescence intensity for rhIL1β-treated group-fluorescence intensity for rhIL1β-untreatedgroup)]×100
Vascular endothelial cells of the normal human umbilical cord grown to confluence were stimulated in 24-well plates with 200 U/ml of rhIL1β at 37° C. for 4 hours. After removal of the supernatant by suction liposome dispersions each prepared from 2→3 sialyl Le^x or a compound of the invention in an amount of 11.8 μM equivalent were added except for the rhIL1β-untreated and treated groups. The mixtures were then allowed to react at room temperature for 30 min. Subsequently, colon carcinoma cell line Colo 201 with 2',7'-bis-(carboxyethyl)-5,6-carboxyfluorescene acetoxymethyl ester fluorescent dye enclosed was added at a level of 1×10^6 cells per well followed by centrifugal operation at 100 rpm for 20 min. Each well was washed three times followed by addition of 0.5 ml of 0.5% Triton X-100 and stirring. The contents were divided into 100 μl portions in 96-well plates and measurement was made on a Baxter fluorometer at 485 nm.
4: rhIL1β-treated group+2→3 sialyl Le^x -containing liposome dispersion-treated group
5: rhIL1β-treated group+compound 5E-containing liposome dispersion-treated group (OEG)*
6: rhIL1β-treated group+compound 5A-containing liposome dispersion-treated group (2EG)
7: rhIL1β-treated group+compound 5B-containing liposome dispersion-treated group (3EG)
8: rhIL1β-treated group+compound 5C-containing liposome dispersion-treated group (4EG)
9: rhIL1β-treated group+compound 5D-containing liposome dispersion-treated group (5EG)
* OEG represents a control compound containing no CH2 CH2 O unit. The same shall apply hereinafter.
Amount adhered and % inhibition of adhesion of Colo 201 cancer cells as measured from fluorescence intensity are shown in Table 2 below.

[2] = tested on: human normal lymphocytes adhering to vascular endothelial cells of the normal human umbilical cord; assay: inhibition of adhesion of human normal lymphocytes to rhIL1β-stimulated vascular endothelial cells, oily emulsion; settings: 20 μg/ml equivalent; for Amount adhered (fluorescence intensity): rhIL1β 200 U/ml, 485 nm/535 nm
Method: (§2) A mixed solution of 6 mg of egg yolk lecithin (manufactured by Nacalaitesque Inc.), 30 μl of soybean oil J. P. (manufactured by Yoshida Seiyaku), 470 μl of distilled water for injection (manufacturedby Otsuka Seiyaku) and 125 μg of a compound of the invention was ultrasonicated (an output of 90 watts) for 10 min. to prepare an oily emulsion. The oily emulsion was further passed through a polycarbonate membrane filter having 0.2 μm average pore diameter (manufactured by Millipore) to provide an average particle size of 0.2 μm.
Vascular endothelial cells of the normal human umbilical cord grown to confluence were stimulated in 24-well plates with 200 U/ml of rhIL1ββat 37° C. for 4 hours. After removal of the supernatant by suction, oily emulsions each prepared from a compound of the invention in an amount of 20 μg/ml equivalent were added except for the rhIL1β-untreated (Sample 1) and treated groups (Samples 2 and 3). The mixtures were then allowed to react at room temperature for 30 min. Subsequently, human normal lymphocytes with 2',7'-bis(carboxyethyl)-5,6-carboxyfluorescence acetoxymethyl ester fluorescent dye enclosed was added at a level of 2×10^6 cells per well followed by centrifugal operation at 100 rpm for 20 min. Each well was washed three times followed by addition of 0.5 ml of 0.5% Triton X-100 and stirring. The contents were divided into 100 μl portions in 96-well plates and measurement was made on a Baxter fluorometer at 485 nm/535 nm.
4: rhIL1β-treated group+2→3 sialyl Lewis X-containing oily emulsion dispersion-treated group
5: rhIL1β-treated group+compound 5E-containing oily emulsion dispersion-treated group (OEG)
(§3) 6: rhIL1β-treated group+compound 5A-containing oily emulsion dispersion-treated group (2EG)
(§4) 7: rhIL1β-treated group+compound 5B-containing oily emulsion dispersion-treated group (3EG)
(§5) 8: rhIL1β-treated group+compound 5C-containing oily emulsion dispersion-treated group (4EG)
(§6) 9: rhIL1β-treated group+compound 5D-containing oily emulsion dispersion-treated group (5EG)
Amount adhered and percent inhibition of adhesion of human normal lymphocytes as measured from fluorescence intensity are shown in Table 5 below.

[3] = tested on: HL-60 cancer cells adhering to vascular endothelial cells of the normal human umbilical cord; assay: inhibition of adhesion of HL-60 cancer cells to rhIL1β-stimulated vascular endothelial cells, oily emulsion; settings: 20 μg/ml equivalent; for Amount of HL-60 cancer cells adhered (fluorescence intensity): rhIL1β 200 U/ml, 485 nm/535 nm
Method: as §2
Vascular endothelial cells of the normal human umbilical cord grown to confluence were stimulated in 24-well plates with 200 U/ml of rhIL1β at 37° C. for 4 hours. After removal of the supernatant by suction, oily emulsions each prepared from a compound of the invention in an amount of 20 μg/ml equivalent were added except for the rhIL1β-untreated group (sample 1) and the treated groups (samples 2 and 3). The mixtures were then allowed to react at room temperature for 30 min. Subsequently, promyelocytic leukemia cell line HL-60 with 2',7'-bis(carboxyethyl)-5,6-carboxyfluorescene acetoxymethyl ester fluorescent dye enclosed was added at a level of 1×10^6 cells per well followed by centrifugal operation at 100 rpm for 20 min. Each well was washed three times followed by addition of 0.5 ml of 0.5% Triton X-100 and stirring. The contents were divided into 100 μl portions in 96-well plates and measurement was made on a Baxter fluorometer at 485 nm/535 nm.
4: rhIL1β-treated group+2→3 sialyl Lewis X (natural type)-containing oily emulsion dispersion-treated group
5: rhlL1β-treated group+compound 5E-containing oily emulsion dispersion-treated group (OEG)
as §3, §4, §5, §6
as §1, with “inhibition” for “Inhibition”, “oily emulsion” for “liposome”

SMILES: CCCCCCCCCCCCCCC(CCCCCCCCCCCCCC)C(=O)Nc1ccc(CO[C@@H]2O[C@H](CO)[C@@H](O[C@@H]3O[C@H](CO)[C@H](O)[C@H](O[C@]4(C(=O)O)C[C@H](O)[C@@H](NC(C)=O)[C@H]([C@H](O)[C@H](O)CO)O4)[C@H]3O)[C@H](O[C@@H]3O[C@@H](C)[C@@H](O)[C@@H](O)[C@@H]3O)[C@H]2O)cc1 [Compound 5E, para-(2-tetradecylhexadecanoyl)-aminobenzyl-O-(5-acetamido-3,5-dideoxy-D-glycero-α-D-galacto-2-nonulopyranosylonic acid)-(2→3)-O-β-galactopyranosyl-(1→4)-[O-α-L-fucopyranosyl-(1→3)-β-D-glucopyranoside], reference compound]
- Amount of Colo 201 cells adhered (fluorescence intensity) [1]: 595253
- % Inhibition of adhesion ([1]; Colo 201 cells): 9.68%
- % Inhibition of adhesion [2]: 46.6%
- Amount adhered (fluorescence intensity) [2]: 14781
- Amount of HL-60 cancer cells adhered (fluorescence intensity) [3]: 24307
- % Inhibition of adhesion ([3]; HL-60 cells): 35.6%

SMILES: CCCCCCCCCCCCC/C=C/[C@@H](O)[C@H](CO[C@@H]1O[C@H](CO)[C@@H](O[C@@H]2O[C@H](CO)[C@H](O)[C@H](O[C@@H]3O[C@H](CO)[C@@H](O[C@@H]4O[C@H](CO)[C@H](O)[C@H](O[C@]5(C(=O)O)C[C@H](O)[C@@H](NC(C)=O)[C@H]([C@H](O)[C@H](O)CO)O5)[C@H]4O)[C@H](O[C@@H]4O[C@@H](C)[C@@H](O)[C@@H](O)[C@@H]4O)[C@H]3NC(C)=O)[C@H]2O)[C@H](O)[C@H]1O)NC(=O)CCCCCCCCCCCCCCCCC [2→3 sialyl Le^x, reference compound]
- Amount of Colo 201 cells adhered (fluorescence intensity) [1]: 448512
- Amount adhered (fluorescence intensity) [2]: 9320
- Amount of HL-60 cancer cells adhered (fluorescence intensity) [3]: 16869
